Counter-ions that a name gives are not always drawn.

As for `COc1ccc(N2CC=C(c3cccc(Cl)c3)C2=O)cc1OCCN1CCC(C)CC1.Cl`, the melting point (in general, the temperature, or range, at which the solid turns liquid) was in the range of 99 to 101 °C.
Consider `COc1ccc(N2CC=C(c3ccc(F)cc3)C2=O)cc1OCCN1CCCCC1` (as salt: hydrochloride), for which the melting point fell in the range of 207 to 209 °C.

The values are drawn from patent publication US20050203079A1, “Compounds having affinity at 5ht2C receptor and use thereof in therapy” (GLAXO GROUP LIMITED, priority 2002, published 2005).
